From article PMC5944028, “Nonclinical and clinical pharmacological characterization of the potent and selective cathepsin K inhibitor MIV-711” (Journal of Translational Medicine, 2018) come the findings set out here.

One data set can be described thus: pKa. It is filed as physicochemical.
Data set [1] in a line: Human safety and tolerability, single ascending dose study. It is filed as in vivo, human healthy subjects. An excerpt:
Twenty-seven healthy male and female subjects (18 male and 9 female) of any ethnic origin (24 White, 1 Asian, 1 Black, 1 Black/Caribbean White), aged between 19 and 64 years, and with a body mass index (BMI) between 18.0 and 32.0 kg/m^2, were selected for this study. Inclusion criteria for enrollment followed the standard practice for first-in-man studies.
This was a randomized, double-blind, placebo-controlled, sequential, single-ascending dose study conducted at a single site with the objective of evaluating the safety, tolerability, pharmacokinetics (PK) and pharmacodynamics of MIV-711. Subjects were randomized into 3 groups using a computer-generated pseudo-random permutation procedure. Each group consisted of 9 subjects with at least 3 subjects of each gender per group and subjects participated in 1–2 treatment periods. There was a minimum of 10 days between dose escalations and a minimum of 20 days between dosing occasions for individual subjects. For each subsequent dosing occasion, the decision to escalate the dose to the next level was taken after a thorough review of the safety, tolerability and PK data. In each treatment period, 7 subjects received MIV-711 and 2 received placebo (comprising of 1 subject of each gender). Dosing occurred on the morning of Day 1 following an overnight fast and subjects were kept in the fasted state until approximately 4.5 h after dosing. MIV-711 was given as a combination of 10 or 40 mg hard gelatin capsules, while placebo was given in similar capsules of identical appearance.
Standard safety assessments were performed throughout the study and included physical examination, vital signs, 12-lead electrocardiogram (ECG), continuous ECG Holter monitoring, hematology, biochemistry, urinalysis and adverse event monitoring.
In the nonclinical studies, two-way ANOVA was used to assess the effects of MIV-711 on plasma CTX-I. Pearson’s correlation was used when comparing plasma exposure of MIV-711 with inhibitory effects on CTX-I. Student’s unpaired t test was used when assessing the effect of MIV-711 on urine biomarkers. In the clinical study, PK parameters were summarized by dose level using descriptive statistics. The dose proportionality for AUC and Cmax was assessed by using a power model with determination of the linear regression slope with a 95% confidence interval. Change in CTX-I from baseline at 24 h after dose was calculated by dose level and summarized using descriptive statistics. In addition, the 95% confidence interval for the difference between each MIV-711 group and the placebo group for these variables was calculated by dose level. Pearson’s correlation was used when comparing plasma exposure of MIV-711 with inhibitory effects on CTX-I. A time-matched and placebo-corrected approach was used to evaluate the effects of MIV-711 on the QTcF interval from the Holter ECG recordings. The change-from-baseline QTcF at post-dose time points was analyzed using an ANCOVA model including the treatment, time (categorical), and treatment-by-time interaction as fixed effects, baseline QTcF as a covariate, and subject as random effect. A p value < 0.05 was considered statistically significant. Data are expressed as mean ± SEM.

Data set [2] has as its system differentiated human osteoclasts. Description: Osteoclast-mediated bone resorption, human bone fragments (CTX-I release). In kind it is cell-based. Here is the method: The effect of MIV-711 on osteoclast-mediated bone resorption was evaluated using a complete kit from Cambrex Bio Science (Walkersville, MD, USA). Briefly, primary osteoclasts were generated from osteoclast precursors by incubation with RANK ligand and M-CSF in 96-well plates coated with human bone fragments, according to the instructions from the provider. After differentiation (minimum of 5 days), osteoclasts were exposed to different fixed concentrations of MIV-711 for 24 h. The resorption activity of the cultures was determined by quantifying CTX-I in the culture supernatants using a commercially available enzyme-linked immunosorbent assay (CrossLaps®, Nordic Bioscience Diagnostics A/S, Herlev, Denmark). Controls exposed to medium without inhibitor were set to 100%. CTX-I levels from MIV-711-treated cells were normalized and expressed as % of control. Curves were generated plotting the concentration of MIV-711 versus % of control. The curves were fitted to the Hill (four parameter) equation to generate an IC50 value using GraphPad Prism software. The IC50 value was defined as the concentration of MIV-711 that reduced CTX-I levels to 50% of control.

In a further data set the test system is plasma CTX-I. Description: Monkey plasma CTX-I, single oral dose. It is filed as in vivo, cynomolgus monkeys (Macaca fascicularis). Here is the method: Eight cynomolgus monkeys (Macaca fascicularis) were used for measuring plasma levels of MIV-711 and CTX-I after a single dose. The animals were healthy young males, approximately 2–4 years old and weighing 3–4 kg. Experiments were performed at Covance Ltd (Harrogate, UK). The monkeys were used over an extended period of time (up to a year) and several cathepsin K inhibitors were evaluated during this time. At least 1 week was allowed for washout in between experiments. This was not believed to affect the results with MIV-711, and vehicle controls were run on a regular basis when appropriate. Each animal received at least one dose of MIV-711 and one dose of vehicle with at least 1 week of washout in between treatments.
In single dose experiments, animals were dosed with vehicle or MIV-711 (3–30 µmol/kg) via oral gavage at a dose volume of 4 mL/kg between 7:30 and 9:00 a.m. Blood samples were collected at baseline, 30 min, 1, 2, 4, 8, 12, 24 and 48 h after dose from the femoral vein and transferred into lithium heparin anticoagulant tubes. The samples were centrifuged and the two aliquots of the resultant plasma were frozen at − 70 °C. All samples were processed and stored within 30 min of collection. The aliquots were used to determine the MIV-711 concentration and CTX-I levels, respectively. [drawing 1]
Since the concentration of MIV-711 was measured in each animal it was possible to relate the MIV-711 exposure over 24 h to the % CTX-I inhibition over 24 h in each animal.
The quantification of CTX-I in monkey plasma samples and human serum samples was performed using a commercially available kit (Serum CrossLaps ELISA, IDS Nordic, Herlev, Denmark). The levels of CTX-I in monkey urine samples were measured using a commercially available kit (Urine BETA CrossLaps ELISA, IDS Nordic). The quantification of NTX-I in monkey samples was performed using a commercially available kit (Osteomark NTx Urine, Wampole Laboratories, Inc, Princeton, USA). Urinary levels of CTX-II in monkey samples were measured using a commercially available kit (Urine CrossLaps EIA, IDS Nordic). The concentrations of biomarkers in the urine samples were corrected for creatinine concentrations. The creatinine levels in urine were determined at Swedish University of Agricultural Sciences, using the enzymatic assay (cat no. 8L24-01) on the Abbott system Architect c4000.

Where [3] appears, read: single ascending doses 20–600 mg.

Consider `C#C[C@@H]1CN(C(=O)[C@H](CC(C)C)NC(=O)c2ccc(-c3nc(N4CCN(C)CC4)sc3F)cc2)[C@@H]2C(=O)CO[C@H]12` [MIV-711], for which the pKa in “pKa” turned out to be 7.15. Moreover, the “Adverse events considered possibly related to treatment” value in data set [1] (6/35, all mild) came to 17%. Moreover, in data set [1] (11/35 MIV-711-treated subjects), the “Subjects reporting adverse events” value was determined as 31%. Besides, the “Upper confidence interval of the projected QTcF effect at the highest observed plasma levels” value in data set [1] (maximum dose of 600 mg) was “below 10 ms”. In data set [1] (setting [3]), the Safety and tolerability result was “safe and well-tolerated”; the Serious adverse events result is “no serious adverse events”. For the same molecule, the “Concentration needed for effect on bone resorption in vitro relative to Ki” value in data set [2] is reported as “around 50 fold”. In addition, the IC50 in data set [2] (human bone fragments, 24 h, CTX-I, geometric mean) was 43 nM. Further, in the data set on plasma CTX-I (3 µmol/kg p.o. (p > 0.05)), the “Effect on plasma CTX-I versus vehicle” value was “did not differ significantly vs. vehicle”. Moreover, the “Effect on plasma CTX-I versus vehicle” value with plasma CTX-I (10 µmol/kg p.o., between 8 and 24 h post-dose (p < 0.05)) is reported as “statistically significant versus vehicle”. The “Exposure required for 50% reduction of CTX-I at 24 h post dose” value in the data set on plasma CTX-I (AUC0–24h) is 1.5 µmol/L/h. Besides, the “Reduction of plasma CTX-I compared to baseline” value in the data set on plasma CTX-I (highest dose (30 µmol/kg p.o.), 24 h post-dose) was 57%.
